Measurements from patent US20250000805A1, “VALBENAZINE COMPOSITIONS” (Neurocrine Biosciences, Inc., priority 2021, published 2025).

Test: Stability of dissolution standards and dissolution samples at ambient lab conditions
Type: physicochemical
Protocol: 40.5±4.0 mg of valbenazine ditosylate reference standard (equivalent to 22.22 mg of valbenazine free base) was added to a 250-mL volumetric flask. Diluent (0.1 N HCl dissolution media) was added to the flask, up to about 75% of the volume of the flask. The contents of the flask were mixed well, and sonicated if necessary, to provide a standard solution containing 0.0889 mg/mL valbenazine free base. The standard was stable for 17 days, stored at ambient lab conditions.
10.12±1.0 mg of valbenazine ditosylate reference standard (equivalent to 5.55 mg of valbenazine free base) was added to a 250-mL volumetric flask. Diluent (0.1N HCl dissolution media) was added to the flask, up to about 75% of the volume of the flask. […]
(§1) Dissolution was measured according to Table 8, above. After completion of the dissolution, the end temperature and observations for each vessel were recorded. […]
as §1
(§2) Dissolution was measured according to Table 9, above. After completion of the dissolution, the end temperature and observations for each vessel were recorded. […]
as §2

time the dissolution standard was stable (0.0222 mg/mL valbenazine free base in 0.1N HCl): 7 days | time the dissolution standard was stable (0.0889 mg/mL valbenazine free base in 0.1 N HCl): 17 days
Structure (SMILES): COc1cc2c(cc1OC)[C@H]1C[C@@H](OC(=O)[C@@H](N)C(C)C)[C@H](CC(C)C)CN1CC2.Cc1ccc(S(=O)(=O)O)cc1.Cc1ccc(S(=O)(=O)O)cc1 [L-Valine, (2R,3R,11bR)-1,3,4,6,7,11b-hexahydro-9,10-dimethoxy-3-(2-methylpropyl)-2H-benzo[a]quinolizin-2-yl ester, 4-methylbenzenesulfonate (1:2)]
